Measurements taken from ChEMBL document CHEMBL5154664, “Imidazolylacetophenone oxime-based multifunctional neuroprotective agents: Discovery and structure-activity relationships” (Eur J Med Chem, 2022).
≈ marks a conversion by molar mass, not a printed value. Calls of active or inactive are those of the source. No cut-off for these calls is given here.

Legend:
[1] = target: Acetylcholinesterase (Electrophorus electricus) (UniProt O42275); assay: Inhibition of electric eel AChE at 20 uM using acetylthiocholine iodide as substrate preincubated with enzyme for 20 mins followed by substrate addition and measured after 45 mins by Ellman's method; conditions: time 65.0 min
Chain of Acetylcholinesterase (Electrophorus electricus) (O42275 24-633 limits assumed): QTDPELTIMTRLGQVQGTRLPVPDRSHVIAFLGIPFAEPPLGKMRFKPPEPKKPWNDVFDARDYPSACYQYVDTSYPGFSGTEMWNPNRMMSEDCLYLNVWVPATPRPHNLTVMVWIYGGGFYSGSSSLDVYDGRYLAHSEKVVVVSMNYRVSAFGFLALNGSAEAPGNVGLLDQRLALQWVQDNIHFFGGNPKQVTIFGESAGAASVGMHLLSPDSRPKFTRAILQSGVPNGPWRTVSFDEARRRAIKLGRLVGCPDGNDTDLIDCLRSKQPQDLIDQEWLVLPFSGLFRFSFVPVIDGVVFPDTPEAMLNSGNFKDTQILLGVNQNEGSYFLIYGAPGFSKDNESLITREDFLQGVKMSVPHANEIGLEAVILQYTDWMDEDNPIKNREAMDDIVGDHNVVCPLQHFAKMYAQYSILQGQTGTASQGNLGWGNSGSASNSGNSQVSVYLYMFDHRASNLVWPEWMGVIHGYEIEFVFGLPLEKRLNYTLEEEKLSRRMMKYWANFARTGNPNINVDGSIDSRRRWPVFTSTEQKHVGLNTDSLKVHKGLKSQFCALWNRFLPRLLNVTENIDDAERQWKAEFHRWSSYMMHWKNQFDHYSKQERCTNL

[2] = Cytotoxicity against LPS induced mouse BV-2 cells assessed as inhibition in cell viability at 20 uM measured by MTT assay
[3] = Inhibition of LPS induced NO production in mouse BV-2 cells by Griess reagent based analysis; assay type: functional, cell-based
[4] = Antioxidant activity assessed as DPPH radical scavenging activity at 20 uM incubated for 30 mins under dark condition by microplate reader based assay; assay type: functional
[5] = Permeability of compound by PAMPA-BBB assay; assay type: ADME; conditions: read-out: permeability
[6] = Solubility of the compound by UV-spectrometry; assay type: physicochemical
Acetylcholinesterase = Acetylcholinesterase (Electrophorus electricus, UniProt O42275); assay: Mixed type inhibition of electric eel AChE by reciprocal Lineweaver-Burk plot analysis
Chain of Acetylcholinesterase (O42275 whole entry): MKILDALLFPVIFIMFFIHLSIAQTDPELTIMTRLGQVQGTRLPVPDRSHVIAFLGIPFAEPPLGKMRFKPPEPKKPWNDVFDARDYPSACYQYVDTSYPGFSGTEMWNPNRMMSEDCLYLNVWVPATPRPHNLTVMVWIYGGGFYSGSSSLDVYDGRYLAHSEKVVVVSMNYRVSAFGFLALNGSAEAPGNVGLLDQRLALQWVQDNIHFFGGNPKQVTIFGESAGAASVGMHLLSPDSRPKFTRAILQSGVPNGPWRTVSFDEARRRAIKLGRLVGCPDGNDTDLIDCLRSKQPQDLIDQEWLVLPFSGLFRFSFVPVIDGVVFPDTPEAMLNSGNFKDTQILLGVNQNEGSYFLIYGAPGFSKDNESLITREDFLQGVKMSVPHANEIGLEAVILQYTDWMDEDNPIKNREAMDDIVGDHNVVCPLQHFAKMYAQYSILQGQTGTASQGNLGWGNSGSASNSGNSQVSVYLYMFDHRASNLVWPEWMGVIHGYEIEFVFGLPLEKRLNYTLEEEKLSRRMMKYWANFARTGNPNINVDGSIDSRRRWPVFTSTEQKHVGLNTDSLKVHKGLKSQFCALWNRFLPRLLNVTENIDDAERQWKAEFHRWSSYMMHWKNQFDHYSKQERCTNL

[7] = Cytotoxicity against rat PC12 cells assessed as cell viability at 1 to 10 uM measured after 24 hrs by MTT assay relative to control; assay type: toxicity, cell-based, PC-12; conditions: dose 1-10 µM, read-out: Activity
PC-12 [8] = assay: Anti-ferroptotic activity against RSL-3 induced ferroptosis in rat PC12 cells assessed as increase in cell viability at 10 uM measured after 24 hrs by MTT assay relative to control; assay type: functional
PC-12 [9] = assay: Neuroprotective activity against H2O2-induced neuronal death in rat PC12 cells assessed as increase in cell viability at 10 uM measured after 24 hrs by MTT assay relative to control; assay type: functional
BV-2 [10] = assay: Antiinflammatory activity in mouse BV-2 cells assessed as increase in LPS-induced Arg1 level at 10 uM by ELISA; assay type: functional, cell-based
BV-2 [11] = assay: Antiinflammatory activity in mouse BV-2 cells assessed as reduction in LPS-induced COX-2 expression at 0.5 uM by Western blot analysis relative to control; assay type: functional, cell-based
BV-2 [12] = assay: Antiinflammatory activity in mouse BV-2 cells assessed as reduction in LPS-induced iNOS expression at 0.5 uM by Western blot analysis relative to control; assay type: functional, cell-based
BV-2 [13] = assay: Antiinflammatory activity in mouse BV-2 cells assessed as reduction in LPS-induced iNOS expression at 0.1 to 5 uM by Western blot analysis relative to control; assay type: functional, cell-based; conditions: dose 0.1-5 µM, DDE = dose-dependent effect
BV-2 [14] = assay: Antiinflammatory activity in mouse BV-2 cells assessed as […] LPS-induced TNFalpha production at 1 to 10 uM and measured after 24 hrs by ELISA; assay type: functional, cell-based; conditions: dose 1-10 µM, DDE = dose-dependent effect
[15] = Metal chelating activity assessed as compound Zn2+ complex formation by measuring maximum absorption wavelength shift at 25 uM incubated for 30 mins by UV-visible spectrophotometry
BV-2 [16] = assay: Antiinflammatory activity in mouse BV-2 cells assessed as suppression of LPS-induced IL-1beta secretion at 10 uM and measured after 24 hrs by ELISA; assay type: functional, cell-based
BV-2 [17] = assay: Antiinflammatory activity in mouse BV-2 cells assessed as reduction in LPS-induced COX-2 expression at 0.1 to 5 uM by Western blot analysis relative to control; assay type: functional, cell-based; conditions: dose 0.1-5 µM, DDE = dose-dependent effect
[18] = Metal chelating activity assessed as Cu2+-compound complex formation by measuring maximum absorption wavelength shift at 25 uM incubated for 30 mins by UV-Visible spectrophotometry
[19] = Metal chelating activity assessed as Cu2+-compound complex formation at compound:Cu2+ molar ratio of 1:1 to 1:4 at 25 uM incubated for 30 mins by UV-visible spectrophotometry
[20] = Metal chelating activity assessed as compound Fe2+ complex formation by measuring maximum absorption wavelength shift at 25 uM incubated for 30 mins by UV-visible spectrophotometry
[21] = Metal chelating activity assessed as compound Mg2+ complex formation by measuring maximum absorption wavelength shift at 25 uM incubated for 30 mins by UV-visible spectrophotometry
[22] = Metal chelating activity assessed as compound Ca2+ complex formation by measuring maximum absorption wavelength shift at 25 uM incubated for 30 mins by UV-visible spectrophotometry
[23] = target: Prostaglandin G/H synthase 2 (Homo sapiens) (UniProt P35354); assay: Inhibition of human COX2 at 40 uM by microplate reader assay
Chain of Prostaglandin G/H synthase 2 (Homo sapiens) (P35354 whole entry, looked up): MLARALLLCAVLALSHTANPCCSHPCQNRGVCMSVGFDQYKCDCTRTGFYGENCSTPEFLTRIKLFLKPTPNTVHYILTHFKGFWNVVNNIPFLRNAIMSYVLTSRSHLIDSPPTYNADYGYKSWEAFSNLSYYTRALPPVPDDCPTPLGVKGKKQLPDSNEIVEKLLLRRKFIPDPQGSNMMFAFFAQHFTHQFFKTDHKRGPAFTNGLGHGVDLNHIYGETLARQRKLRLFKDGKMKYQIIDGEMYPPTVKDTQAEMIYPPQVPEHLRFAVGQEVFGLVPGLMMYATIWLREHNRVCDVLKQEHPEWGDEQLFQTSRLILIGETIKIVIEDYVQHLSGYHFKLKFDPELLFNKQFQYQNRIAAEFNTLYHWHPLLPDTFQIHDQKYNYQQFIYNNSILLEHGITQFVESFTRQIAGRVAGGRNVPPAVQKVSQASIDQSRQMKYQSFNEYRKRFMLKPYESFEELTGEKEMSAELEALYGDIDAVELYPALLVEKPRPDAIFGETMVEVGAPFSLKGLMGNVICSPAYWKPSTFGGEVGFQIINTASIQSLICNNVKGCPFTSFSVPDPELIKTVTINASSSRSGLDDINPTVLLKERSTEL

CC1(C)Oc2ccc(/C(Cn3ccnc3)=N/OC(=O)c3ccc4cc(Br)ccc4c3)cc2O1
inhibition [1]: 69%
viability at 20 µM ([2]; BV-2 cells): 92.7%
EC50 [3]: 1.13 µM

CC1(C)Oc2ccc(/C(Cn3ccnc3)=N/OC(=O)/C=C/c3ccc(C(F)(F)F)cc3)cc2O1
Activity [4]: 27.7%
viability at 20 µM ([2]; BV-2 cells): 92.1%
EC50 [3]: 1.03 µM

C#CCO/N=C(\Cn1ccnc1)c1ccc(Br)cc1
CC50 ([2]; BV-2 cells): > 20 µM
EC50 [3]: 5.6 µM

C#CCO/N=C(\Cn1ccnc1)c1ccc2c(c1)OCO2
viability at 20 µM ([2]; BV-2 cells): 92.5%
EC50 [3]: 2.07 µM

C#CCO/N=C(\Cn1ccnc1)c1ccc2c(c1)OC(C)(C)O2
viability at 20 µM ([2]; BV-2 cells): 95.1%
EC50 [3]: 3.25 µM

CC1(C)Oc2ccc(/C(Cn3ccnc3)=N/OC(=O)/C=C/c3ccccc3)cc2O1
viability at 20 µM ([2]; BV-2 cells): 91.8%
EC50 [3]: 5.85 µM

C#CCO/N=C(\Cn1ccnc1)c1ccc(I)cc1
viability at 20 µM ([2]; BV-2 cells): 92.1%
EC50 [3]: 12.7 µM

C#CC(C)O/N=C(\Cn1ccnc1)c1ccc2c(c1)OCO2 (configuration not stated)
viability at 20 µM ([2]; BV-2 cells): 96.1%
EC50 [3]: 5.41 µM

CC1(C)Oc2ccc(/C(Cn3ccnc3)=N/OC(=O)Cc3ccc4ccccc4c3)cc2O1
viability at 20 µM ([2]; BV-2 cells): 96.4%
EC50 [3]: 1.51 µM

FC(F)(F)c1ccccc1CO/N=C(\Cn1ccnc1)c1ccc2c(c1)OCO2
Activity [4]: 8.51%
viability at 20 µM ([2]; BV-2 cells): 95.4%
EC50 [3]: 1.53 µM

Clc1ccc(CO/N=C(\Cn2ccnc2)c2ccc(Cl)cc2Cl)c(Cl)c1 [OXICONAZOLE]
viability at 20 µM ([2]; bv-2): 96.2%

CC1(C)Oc2ccc(/C(Cn3ccnc3)=N/OC(=O)/C=C/c3ccc(Cl)cc3)cc2O1
inhibition [1]: 71%
viability at 20 µM ([2]; BV-2 cells): 91%
EC50 [3]: 3.71 µM

CC1(C)Oc2ccc(/C(Cn3ccnc3)=N/OC(=O)c3ccc(F)cc3)cc2O1
viability at 20 µM ([2]; BV-2 cells): 99.7%
EC50 [3]: 6.32 µM

C=CCO/N=C(\Cn1ccnc1)c1ccc2c(c1)OCO2
viability at 20 µM ([2]; BV-2 cells): 97.8%
EC50 [3]: 3.42 µM

CC1(C)Oc2ccc(/C(Cn3ccnc3)=N/OC(=O)c3ccccc3Br)cc2O1
viability at 20 µM ([2]; BV-2 cells): 95.4%
EC50 [3]: 3.89 µM

CC1(C)Oc2ccc(/C(Cn3ccnc3)=N/OC(=O)c3ccc(Cl)cc3)cc2O1
viability at 20 µM ([2]; BV-2 cells): 90.5%
EC50 [3]: 5.52 µM

N#Cc1ccc(CO/N=C(\Cn2ccnc2)c2ccc3c(c2)OCO3)cc1
viability at 20 µM ([2]; BV-2 cells): 91.6%
EC50 [3]: 4.24 µM

NC(=O)N1c2ccccc2C=Cc2ccccc21 [CARBAMAZEPINE]
Papp [5]: 10.2 ×10⁻⁶ cm/s

O=c1c(O)c(-c2ccc(O)c(O)c2)oc2cc(O)cc(O)c12 [QUERCETIN]
viability at 20 µM ([2]; BV-2 cells): 94.3%
EC50 [3]: 9.56 µM

c1ccc(CO/N=C(\Cn2ccnc2)c2ccc3c(c2)OCO3)cc1
viability at 20 µM ([2]; BV-2 cells): 97.8%
EC50 [3]: 4.43 µM

CC1(C)Oc2ccc(/C(Cn3ccnc3)=N/OC(=O)/C=C/c3cccc(Cl)c3)cc2O1
viability at 20 µM ([2]; BV-2 cells): 92.7%
EC50 [3]: 4.83 µM

CC(C)=CCO/N=C(\Cn1ccnc1)c1ccc2c(c1)OCO2
Activity [4]: 4.25%
viability at 20 µM ([2]; BV-2 cells): 93.3%
EC50 [3]: 1.76 µM

Cc1ccc(C(=O)O/N=C(\Cn2ccnc2)c2ccc3c(c2)OC(C)(C)O3)cc1
viability at 20 µM ([2]; BV-2 cells): 98.2%
EC50 [3]: 9.05 µM

CC1(C)Oc2ccc(/C(Cn3ccnc3)=N/OC(=O)/C=C/c3ccccc3F)cc2O1
viability at 20 µM ([2]; BV-2 cells): 90.8%
EC50 [3]: 3.19 µM

CC1(C)Oc2ccc(/C(Cn3ccnc3)=N/OC(=O)c3ccc4ccccc4c3)cc2O1
solubility [6]: 316 µg/mL (≈ 738 µM)
Ki (Acetylcholinesterase): 0.308 µM
Papp [5]: 10.7 ×10⁻⁶ cm/s
inhibition [1]: 67%
viability at 24 h, up to 10 µM [7]: > 95%
Activity (PC-12 [8]): 58%
Activity (PC-12 [9]): 83%
Activity [4]: 25.5%
Activity (BV-2 [10]): Active
Activity (BV-2 [11]): Active
Activity (BV-2 [12]): Active
Activity (BV-2 [13]): Dde
Activity (BV-2 [14]): Dde
viability at 20 µM ([2]; BV-2 cells): 94.1%
EC50 [3]: 0.57 µM
Activity [15]: Active
Activity (BV-2 [16]): Active
Activity (BV-2 [17]): Dde
Activity [18]: Active
Activity [19]: Active
Activity [20]: Active
Activity [21]: Active
Activity [22]: Active
inhibition [23]: 92%

C#CCO/N=C(\Cn1ccnc1)c1ccc(Cl)cc1
viability at 20 µM ([2]; BV-2 cells): 92.4%
EC50 [3]: 15.5 µM

CC1(C)Oc2ccc(/C(Cn3ccnc3)=N/OC(=O)Cc3cccc4ccccc34)cc2O1
solubility [6]: 509 µg/mL (≈ 1150 µM)
Papp [5]: 9.2 ×10⁻⁶ cm/s
viability at 24 h, up to 10 µM [7]: > 95%
Activity (PC-12 [8]): 59%
Activity (PC-12 [9]): 84%
Activity (BV-2 [14]): Dde
viability at 20 µM ([2]; BV-2 cells): 94.8%
EC50 [3]: 1.02 µM
Activity (BV-2 [16]): Active

Cc1ccc(/C=C/C(=O)O/N=C(\Cn2ccnc2)c2ccc3c(c2)OC(C)(C)O3)cc1
viability at 20 µM ([2]; BV-2 cells): 93.6%
EC50 [3]: 6.03 µM

CC1(C)Oc2ccc(/C(Cn3ccnc3)=N/OC(=O)c3ccc(Br)cc3)cc2O1
viability at 20 µM ([2]; BV-2 cells): 92.6%
EC50 [3]: 3.16 µM

CC1(C)Oc2ccc(/C(Cn3ccnc3)=N/OC(=O)c3ccc4ccccc4c3Br)cc2O1
inhibition [1]: 72%
viability at 20 µM ([2]; BV-2 cells): 90.8%
EC50 [3]: 6.5 µM

C=CCO/N=C(\Cn1ccnc1)c1ccc2c(c1)OC(C)(C)O2
viability at 20 µM ([2]; BV-2 cells): 96.4%
EC50 [3]: 2.22 µM

CC1(C)Oc2ccc(/C(Cn3ccnc3)=N/OC(=O)/C=C/c3ccc(F)cc3)cc2O1
viability at 20 µM ([2]; BV-2 cells): 95.7%
EC50 [3]: 5.96 µM

FC(F)(F)c1ccc(CO/N=C(\Cn2ccnc2)c2ccc3c(c2)OCO3)cc1
viability at 20 µM ([2]; BV-2 cells): 92.8%
EC50 [3]: 2.37 µM

C=C(C)CO/N=C(\Cn1ccnc1)c1ccc2c(c1)OCO2
viability at 20 µM ([2]; BV-2 cells): 96.5%
EC50 [3]: 2.12 µM

C#CCO/N=C(\Cn1ccnc1)c1ccc(C(F)(F)F)cc1
viability at 20 µM ([2]; BV-2 cells): 93.7%
EC50 [3]: 8.55 µM

C(=C\c1ccccc1)/CO/N=C(\Cn1ccnc1)c1ccc2c(c1)OCO2
viability at 20 µM ([2]; BV-2 cells): 96.3%
EC50 [3]: > 20 µM

CC1(C)Oc2ccc(/C(Cn3ccnc3)=N/OC(=O)c3cccc4ccccc34)cc2O1
Activity [4]: 36.2%
viability at 20 µM ([2]; BV-2 cells): 91.1%
EC50 [3]: 1.62 µM

Cc1ccc(C(=O)O/N=C(\Cn2ccnc2)c2ccc3c(c2)OC(C)(C)O3)c2ccccc12
Activity [4]: 34%
viability at 20 µM ([2]; BV-2 cells): 94.3%
EC50 [3]: 1.79 µM

C#CCO/N=C(\Cn1ccnc1)c1ccc(OC)cc1
viability at 20 µM ([2]; BV-2 cells): 95.9%
EC50 [3]: 9.07 µM

C#CCO/N=C(\Cn1ccnc1)c1ccc(F)cc1
viability at 20 µM ([2]; BV-2 cells): 93.8%
EC50 [3]: 7.8 µM

Cc1cccc(C(=O)O/N=C(\Cn2ccnc2)c2ccc3c(c2)OC(C)(C)O3)c1
Activity [4]: 29.8%
viability at 20 µM ([2]; BV-2 cells): 96.1%
EC50 [3]: 1.71 µM

CC1(C)Oc2ccc(/C(Cn3ccnc3)=N/OC(=O)/C=C/c3ccc(Br)cc3)cc2O1
viability at 20 µM ([2]; BV-2 cells): 96.3%
EC50 [3]: 6.89 µM

CC1(C)Oc2ccc(/C(Cn3ccnc3)=N/OCc3ccccc3)cc2O1
viability at 20 µM ([2]; BV-2 cells): 95.7%
EC50 [3]: 5.69 µM
